Experimental data as given in patent US3986930A, “Lipase activity determining method and reagent” (Dainippon Pharmaceutical Co., Ltd., priority 1974, dated 1976).
Blank lines part the entries; values can stand above or below the compound they belong to.

Legend:
[1] = target: T1, Purified hog pancreatic lipase (type IV, Sigma) (Sus scrofa, UniProt P00591); experiment: Hydrolysis of S-acyl substrates by purified hog pancreatic lipase, DTNB colorimetry at 412 nm, no PMSF; format: biochemical; conditions: for Relative activity (%): relative activity of BLME for lipase expressed as 100, 10 μl lipase solution
T1 construct: purchased Sigma Chemical Co. type IV; host or cells: hog pancreas
T1 sequence (P00591 1-450): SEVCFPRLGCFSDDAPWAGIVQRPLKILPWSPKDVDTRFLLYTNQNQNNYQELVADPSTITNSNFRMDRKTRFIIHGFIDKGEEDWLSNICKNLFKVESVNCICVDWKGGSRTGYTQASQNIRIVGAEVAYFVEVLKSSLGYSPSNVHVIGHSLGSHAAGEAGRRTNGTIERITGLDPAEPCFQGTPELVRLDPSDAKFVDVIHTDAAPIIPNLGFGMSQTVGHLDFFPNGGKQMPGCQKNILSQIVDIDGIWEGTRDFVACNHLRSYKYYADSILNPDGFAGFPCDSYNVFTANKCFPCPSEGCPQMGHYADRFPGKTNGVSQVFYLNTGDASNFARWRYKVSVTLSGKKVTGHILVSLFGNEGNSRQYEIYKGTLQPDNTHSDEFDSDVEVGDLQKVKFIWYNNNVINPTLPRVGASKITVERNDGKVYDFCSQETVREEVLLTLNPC
Description: The determination of lipase activity by the present invention is carried out based on the following principle. That is, a solution of the substrate [an S-acyl compound of the formula (I), (II), (III) or (IV)] in an alcohol is added to the reaction buffer solution containing the sample with lipase and a chromogenic sulfhydryl reagent which reacts with a SH-group-containing compound [hereinafter, referred to as "SH-compound" ] released from the substrate by lipase. The amount of the released SH-compound or the intensity of the colored reaction mixture is proportional to the lipase activity in the sample, and therefore, the lipase activity can be determined by subjecting the resulting colored reaction mixture to colorimetric readings. As a sulfhydryl reagent, 5,5'-dithiobis(2-nitrobenzoic acid) [hereinafter, referred to as "DTNB" ] is used. In case of the measurement of lipase activity by using the S-acyl compound (I) (X is O) and DTNB, it is assumed that the reaction will proceed as shown in the following scheme: [drawing 6]
(§1) To test tubes I and II are added (c) (1 ml) and a test sample (10 - 1,500 BALB unit of lipase or about 10 μl of human serum), and further to the test tube I is added (b) (20 μl; the concentration of PMSF: about 0.4 mM) and the mixture is allowed to stand at room temperature for 5 minutes to inactivate the existing serum caboxylesterase and/or arylesterase.
(§2) To the test tube I is further added a substrate (a) (0.1 ml). The test tubes I and II are kept for 30 minutes at 38° C, and immediately to the test tube II is added the substrate (a) (0.1 ml) and to these test tubes I and II is added acetone (d) (2 ml) to stop the reaction. After mixed well, the tubes I and II were centrifuged (700 × g, for 10 minutes) to remove insoluble serum proteins and turbidity due to serum lipids and the substrate. The optical density of the supernatant of the tube I is measured at 412 nm in a cuvette of 1 cm light path (OD412 ^1 cm ) against that of the tube II.
Purified hog pancreatic lipase (type IV, a product of Sigma Chemical Co.) is dissolved in 1 % human serum albumin solution to give a solution (10 μg/ml). The lipase activity in 10 μl of this solution (correspondingto 0.1 μ g of lipase) is determined in the same manner as described in Example 2 (substrate: BALB) in the absence of PMSF. The lipase activity measured is 800 BALB units.
One μmole of the released SH-group from the substrate gives 4.75 of OD412 ^1 cm under the conditions described in Example 11, and therefore 1 mg of the purified hog pancreatic lipase is calculated to hydrolyze the S-acyl group of the BALB to give a free SH-group at the rate of 1,670 μmoles/30 minutes.
The same lipase solution (10 μl) as prepared in Example 11 is treated in the same manner as described in Example 2 by using various S-acyl compounds as the substrate in the absence of PMSF. The relative activity of the S-acyl compounds are measured. The results are shown in Table 4, wherein the relative activity of BLME for lipase is expressed as 100.

carboxylesterase = experiment: Inhibition of carboxylesterase by PMSF (rate of hydrolysis of S-acyl substrate, DTNB colorimetry); format: biochemical
Description: as §1, §2
Besides, test tube III is treated in the same manner as test tube I except that the enzyme inhibitor (b) is omitted.
In the same manner as described in Example 2, the determination of lipase activity is carried out except that the substrate (a' ) is used instead of (a).
(§3) In the same manner as described in Example 2, lipase of 1,100 BALB unit, carboxylesterase of 450 BALB unit or arylesterase of 60 BALB unit is treated (substrate: BALB), wherein the concentration of PMSF is varied, and then the rate of hydrolysis of BALB (relative activity) is measured.
(§4) In the same manner as described in Example 3, lipase of 1,100 MPB unit, carboxylesterase of 140 MPB unit or arylesterase of 68 MPB unit is treated (substrate: MPB), wherein the concentration of PMSF is varied, and then the rate of hydrolysis of MPB (relative activity) is measured.
In the same manner as described in Example 9, the determination of lipase activity is carried out by using BLME as the substrate. […]

arylesterase = experiment: Inhibition of arylesterase by PMSF (rate of hydrolysis of S-acyl substrate, DTNB colorimetry); format: biochemical
Description: as §1
as §2, with “After mixed well, the tubes I and II were centrifuged (700 × g, for 10 minutes) to remove insoluble serum proteins and turbidity due to serum lipids and the substrate.” left out, “II. […]” for “II.”
as §3, §4

lipase = experiment: Inhibition of lipase by PMSF (rate of hydrolysis of S-acyl substrate, DTNB colorimetry); format: biochemical; conditions: substrate BLME; 0 - 2.0 mM of PMSF
Description: as §1
as §2, with “After mixed well, the tubes I and II were centrifuged (700 × g, for 10 minutes) to remove insoluble serum proteins and turbidity due to serum lipids and the substrate.” left out, “II. […]” for “II.”
as §3
In the same manner as described in Example 3, lipase of 1,100 MPB unit, carboxylesterase of 140 MPB unit or arylesterase of 68 MPB unit is treated (substrate: MPB), wherein the concentration of PMSF is varied, and then the rate of hydrolysis of MPB (relative activity) is measured. […]

[2] = Storage / heat stability of reagent solutions in alcohol; format: physicochemical; conditions: heated at 120° C for 30 minutes
Excerpt: According to the present method, the measurement of lipase activity can be easily carried out by using so small amount of sample as 1/10 to 1/100 of that in the known methods described hereinbefore and within a shorter time. Moreover, the substrate becomes micellar merely by mixing and shaking with a buffer solution without addition of an emulsifier or vigorous stirring, and further, the solution of the substrate in an alcohol is stable at room temperature for more than 6 months.
The enzyme inhibitor (e.g. PMSF) is preferably preserved in the form of an alcoholic solution (e.g. ethanolic solution). PMSF in an alcohol solution is stable even if it is heated at 120° C for 30 minutes, but if the solution is mixed with the substrate (I), (II), (III) or (IV) in an alcohol, PMSF undergoes chemical reaction with the substrate to lose its action as an esterase-inhibitor, and therefore, both of the solutions must be preserved separately.

relative activity as fraction of the relative activity of BALB ([1]; absence of PMSF): less than 1/10
Structure (SMILES): CCCC(=O)OC(CSC(=O)CCC)CSC(=O)CCC [2-butyroyloxy-1,3-bisbutyroylthiopropane]

lipase activity measured, OD412 (I-II) x 1,000 ([1]; 0.1 μg hog pancreatic lipase, 30 minutes at 38° C, absence of PMSF): 800 BALB units
activity for lipase (in words) ([1]; absence of PMSF): extremely high activity
rate of hydrolysis of the S-acyl group to free SH-group by 1 mg of lipase ([1]; per 1 mg purified hog pancreatic lipase, calculated from 4.75 OD412 per μmole SH): 1,670 μmoles/30 minutes
Structure (SMILES): CCCC(=O)OCC(CSC(=O)CCC)SC(=O)CCC (stereo not shown) [BALB]

Relative activity (%) ([1]; absence of PMSF): 100%
Structure (SMILES): CCCCCCCCCCCC(=O)OCCSC(=O)CCC [BLME, S-butyroyl-O-lauroylmercaptoethanol]

Structure (SMILES): O=S(=O)(F)Cc1ccccc1 [PMSF, phenylmethylsulfonyl fluoride]
50 % inhibitory concentration for carboxylesterase as fraction of that for lipase (carboxylesterase; substrate BALB): about 1/100
carboxylesterase activity inhibited (carboxylesterase; substrate BLME, 0.2 mM or more of PMSF): ≥ 90%
50 % inhibitory concentration for carboxylesterase as fraction of that for lipase (carboxylesterase; substrate MPB): about 1/200
50 % inhibitory concentration for arylesterase as fraction of that for lipase (arylesterase; substrate BALB): 1/300
50 % inhibitory concentration for arylesterase as fraction of that for lipase (arylesterase; substrate MPB): 1/400
Inhibition of the lipase activity (lipase): negligible
stability of alcohol solution on heating [2]: stable

Relative activity (%) ([1]; absence of PMSF): 35%
Structure (SMILES): CCCC(=O)OC(CSC(=O)CCC)CSC(=O)CCC [drawing 28]
